In patent US7820196B2, “Physiologically active agents containing vicinal dithioglycols and use thereof in various branches of economy” (priority 1999, dated 2010):

Tested on: broiler chickens
Test: Example 6: effect of unithiol on productivity and meat quality of broiler chickens
Format: in vivo
Set-up: average daily gain: unit not given here
Procedure: An experiment was conducted, on the inventors' initiative, on the experimental base of the All-Russia research and technological institute for aviculture (VNITIP) during which a study was given to the following tasks: • determination of an effect produced by unithiol (DMPS) on the productivity and meat quality of broiler chickens; • effect produced by unithiol on the accumulation of heavy metal compounds (mercury, cadmium, lead) in various tissues of poultry.
The experiment was carried out in a vivarium on broiler chickens of one cross. Poultry was grown in cell batteries from one day to six-week age. The operating parameters and feeding level met the recommendation VNITIP 1999. The experiment was conducted according to the diagram on Table 1.
The poultry population: 1 and 2 groups, 35 heads each; 3,4,5 groups—6 heads each.
1. Chicks' individual live weight; weighing at the age of one day, 2-, 4-, 6 weeks.
2. Average daily live weight increase of the broilers over a 6-week period.
3. Safety of the poultry population, the daily record keeping of the broilers lost, with the causes of murrain established.
4. Feathering conditions, individual evaluation.
5. Feed consumption over a period of growing by way of the daily record keeping and weighing of specifies feed for each and every group, as calculated per head and per kg of live weight increase.
6. Dressed small carcass mass, individually weighing in slaughtering at the age of 6 weeks.
7. Dressed yield of meat as calculated.
8. Classification of small carcasses according to GOST 25391-82.
9. Meat qualities by way of anatomically dressing the small carcasses of broilers.
10. Chemical meat composition on terms of a dry substance.
12. Fatty acid meat composition.

[1] = Group 2: BR + 17 mg unithiol/kg feed days 15-42
[2] = Group 4: BR + heavy metals + 17 mg unithiol/kg feed, both days 15-42
[3] = Group 5: BR + heavy metals days 15-35, 34 mg unithiol/kg feed days 36-42
[4] = age 4 weeks, Group 2: BR + 17 mg unithiol/kg feed days 15-42
[5] = age 4 weeks, Group 4: BR + heavy metals + 17 mg unithiol/kg feed, both days 15-42
[6] = age 6 weeks, Group 2: BR + 17 mg unithiol/kg feed days 15-42
[7] = age 6 weeks, Group 4: BR + heavy metals + 17 mg unithiol/kg feed, both days 15-42
[8] = age 6 weeks, Group 5: BR + heavy metals days 15-35, 34 mg unithiol/kg feed days 36-42

## O=S(=O)([O-])CC(S)CS.[Na+] (stereo not shown) [Unithiol, Sodium 2,3-Dimercaptopropane sulfonate]
2nd group
  feathering conditions: best value of feathering conditions
4th and 5th groups, unithiol as additive in feed
  feed remuneration with products: improved feed remuneration with products
5nd group, unithiol additionally to feed
  organoleptic indices of meat (taste, organoleptic qualities of broths): highest value as to organoleptic indices
Group 2: 17 mg/kg of feed since 2-week age
  rates of growth: higher rates of growth
[1]
  Dressed carcasses, weight: 1310 gr
  Feed consumption per head: 3670 gr
  Feed consumption per kg of gain in live weight: 1.98 kg
  Inflamed sores: 14.2%
  Meat category 1: 88.6%
  Meat category 2: 11.4%
  Meat yield: 69.3%
  chemical meat composition: Ash: 0.99%
  chemical meat composition: Dry substance: 28.46%
  chemical meat composition: Fat: 7.79%
  chemical meat composition: Protein: 19.68%
  chemical meat composition: Water: 70.4%
  fatty acid meat composition: Fatty acids (total): 29.58 mg per 100 gr of product
  fatty acid meat composition: Heptadecanoic: 0.24 mg per 100 gr of product
  fatty acid meat composition: Heptadecynoic: 0.14 mg per 100 gr of product
  fatty acid meat composition: Isomyristic: 0.16 mg per 100 gr of product
  fatty acid meat composition: Isopentadecanoic: 0.14 mg per 100 gr of product
  fatty acid meat composition: Linoleic: 6.41 mg per 100 gr of product
  fatty acid meat composition: Linolenic: 0.29 mg per 100 gr of product
  fatty acid meat composition: Myristic: 0.22 mg per 100 gr of product
  fatty acid meat composition: Oleic: 0.13 mg per 100 gr of product
  fatty acid meat composition: Palmitic: 7.05 mg per 100 gr of product
  fatty acid meat composition: Palmitoleic: 2.25 mg per 100 gr of product
  fatty acid meat composition: Pentadecanoic: 0.12 mg per 100 gr of product
  fatty acid meat composition: Polyunsaturated: 6.70 mg per 100 gr of product
  fatty acid meat composition: Saturated and monounsaturated: 22.88 mg per 100 gr of product
  fatty acid meat composition: Stearic: 2.44 mg per 100 gr of product
[2]
  Dressed carcasses, weight: 1217 gr
  Feed consumption per head: 3750 gr
  Feed consumption per kg of gain in live weight: 2.13 kg
  Meat category 1: 66.7%
  Meat category 2: 33.3%
  Meat yield: 67.6%
  chemical meat composition: Ash: 1.07%
  chemical meat composition: Dry substance: 25.71%
  chemical meat composition: Fat: 2.72%
  chemical meat composition: Protein: 21.92%
  chemical meat composition: Water: 73.0%
  fatty acid meat composition: Fatty acids (total): 26.96 mg per 100 gr of product
  fatty acid meat composition: Heptadecanoic: 0.41 mg per 100 gr of product
  fatty acid meat composition: Heptadecynoic: 0.11 mg per 100 gr of product
  fatty acid meat composition: Isomyristic: 0.06 mg per 100 gr of product
  fatty acid meat composition: Isopentadecanoic: 0.03 mg per 100 gr of product
  fatty acid meat composition: Linoleic: 6.30 mg per 100 gr of product
  fatty acid meat composition: Linolenic: 0.25 mg per 100 gr of product
  fatty acid meat composition: Myristic: 0.15 mg per 100 gr of product
  fatty acid meat composition: Oleic: 8.39 mg per 100 gr of product
  fatty acid meat composition: Palmitic: 6.13 mg per 100 gr of product
  fatty acid meat composition: Palmitoleic: 1.71 mg per 100 gr of product
  fatty acid meat composition: Pentadecanoic: 0.05 mg per 100 gr of product
  fatty acid meat composition: Polyunsaturated: 6.55 mg per 100 gr of product
  fatty acid meat composition: Saturated and monounsaturated: 20.41 mg per 100 gr of product
  fatty acid meat composition: Stearic: 3.37 mg per 100 gr of product
[3]
  Dressed carcasses, weight: 1215 gr
  Feed consumption per head: 3780 gr
  Feed consumption per kg of gain in live weight: 2.17 kg
  Meat category 1: 60.0%
  Meat category 2: 40.0%
  Meat yield: 68.3%
  chemical meat composition: Ash: 1.14%
  chemical meat composition: Dry substance: 25.18%
  chemical meat composition: Fat: 2.52%
  chemical meat composition: Protein: 21.52%
  chemical meat composition: Water: 73.28%
  fatty acid meat composition: Fatty acids (total): 26.71 mg per 100 gr of product
  fatty acid meat composition: Heptadecanoic: 0.14 mg per 100 gr of product
  fatty acid meat composition: Heptadecynoic: 0.08 mg per 100 gr of product
  fatty acid meat composition: Isomyristic: 0.06 mg per 100 gr of product
  fatty acid meat composition: Isopentadecanoic: 0.06 mg per 100 gr of product
  fatty acid meat composition: Linoleic: 6.54 mg per 100 gr of product
  fatty acid meat composition: Linolenic: 0.18 mg per 100 gr of product
  fatty acid meat composition: Myristic: 1.29 mg per 100 gr of product
  fatty acid meat composition: Oleic: 7.40 mg per 100 gr of product
  fatty acid meat composition: Palmitic: 5.73 mg per 100 gr of product
  fatty acid meat composition: Palmitoleic: 1.59 mg per 100 gr of product
  fatty acid meat composition: Pentadecanoic: 0.07 mg per 100 gr of product
  fatty acid meat composition: Polyunsaturated: 6.72 mg per 100 gr of product
  fatty acid meat composition: Saturated and monounsaturated: 19.99 mg per 100 gr of product
  fatty acid meat composition: Stearic: 3.57 mg per 100 gr of product
Age 1-6 weeks, Group 2: BR + 17 mg unithiol/kg feed days 15-42
  average daily gain: 44.0
Age 1-6 weeks, Group 4: BR + heavy metals + 17 mg unithiol/kg feed, both days 15-42
  average daily gain: 41.8
Age 1-6 weeks, Group 5: BR + heavy metals days 15-35, 34 mg unithiol/kg feed days 36-42
  average daily gain: 41.4
Age 2-4 weeks, Group 2: BR + 17 mg unithiol/kg feed days 15-42
  average daily gain: 47.1
Age 2-4 weeks, Group 4: BR + heavy metals + 17 mg unithiol/kg feed, both days 15-42
  average daily gain: 42.7
Age 4-6 weeks, Group 2: BR + 17 mg unithiol/kg feed days 15-42
  average daily gain: 64.1
Age 4-6 weeks, Group 4: BR + heavy metals + 17 mg unithiol/kg feed, both days 15-42
  average daily gain: 62.1
Age 4-6 weeks, Group 5: BR + heavy metals days 15-35, 34 mg unithiol/kg feed days 36-42
  average daily gain: 64.2
[4]
  live weight: 993.4 grams
  safety of the poultry population: 100%
[5]
  live weight: 930.0 grams
  safety of the poultry population: 100%
[6]
  live weight: 1890.5 grams
  safety of the poultry population: 100%
[7]
  live weight: 1880.0 grams
  safety of the poultry population: 100%
[8]
  live weight: 1780.0 grams
  safety of the poultry population: 83.3%
Application of unithiol
  dressed yield of meat and fatness: highest level of the dressed yield of meat and also good fatness
Unithiol in the composition of feed
  chemical and fatty acid meat composition: increased polyunsaturated fatty acid content in chicken meat
